Measured values reported in the NIST ThermoML archive (doi:10.1021/acs.jced.8b00684).

Test: xn = mol fraction of the nth substance listed
Settings: 100 kPa, Liquid, Falling or rolling sphere viscometry

CCCCCCn1cc[n+](C)c1.F[B-](F)(F)F [1-hexyl-3-methylimidazolium tetrafluoroborate] + CC#N
viscosity [mPa·s]
Settings	x1 = 0.104	x1 = 0.2049	x1 = 0.2948	x1 = 0.4066	x1 = 0.4616	x1 = 0.5697	x1 = 0.6626	x1 = 0.8083	x1 = 0.9044	x1 = 1
293.15 K	1.15	2.43	4.79	10.5	14.9	29.1	50	112	184	293
298.15 K	1.05	2.26	4.32	9.04	12.7	24	40.3	86.4	139	216
303.15 K	0.99	2.08	3.89	7.92	11	20.1	32.8	67.7	106	163
313.15 K	0.87	1.79	3.21	6.19	8.36	14.6	22.8	43.9	65.9	96.7
323.15 K	0.78	1.56	2.69	4.98	6.58	11	16.6	30.1	43.5	61.8
333.15 K	0.71	1.37	2.3	4.1	5.32	8.58	12.5	21.7	30.4	41.9
343.15 K	0.65	1.22	1.99	3.43	4.38	6.85	9.75	16.2	22.1	29.5

CCCCCCn1cc[n+](C)c1.F[B-](F)(F)F [1-hexyl-3-methylimidazolium tetrafluoroborate] + C[S+](C)[O-]
viscosity [mPa·s]
Settings	293.15 K	298.15 K	303.15 K	313.15 K	323.15 K	333.15 K	343.15 K	353.15 K
x1 = 0.116	4.93	4.18	3.7	2.96	2.43	1.94	1.68	1.37
x1 = 0.2495	11	9.67	8.37	6.47	5.11	4.02	3.14	2.77
x1 = 0.2831	13.7	11.8	10.1	7.71	6.01	4.74	3.68	3.21
x1 = 0.3857	25	20.6	17.1	12.4	9.35	7.28	5.75	4.72
x1 = 0.5036	44.2	34.9	28.4	19.6	14.3	10.8	8.72	6.7
x1 = 0.5714	58.4	45.6	36.6	24.8	17.7	13.2	10.6	7.99
x1 = 0.6702	84.8	65.6	51.8	34.1	23.7	17.2	13.5	10.2
x1 = 0.7517	114	87.6	68.4	44	30	21.4	16.2	12.3
x1 = 0.7883	130	99.7	77.5	49.2	33.3	23.6	17.6	13.4
x1 = 0.8976	196	148	113	69.4	45.6	31.6	22.5	17.2
x1 = 1	293	216	163	96.7	61.8	41.9	29.5	21.7
